In this test the test system is lean C57BL/6NTac mice. Briefly: Intraperitoneal Insulin Tolerance Test (IP-ITT). It counts as in vivo. The settings on record: intraperitoneal injection, two doses per compound (Table 16), blood glucose 30 to 360 min after dose.

Experimental: Groups of N=6-8 animals per group were randomized by weight (average about 30 grams). Two days prior to study, the mice were conditioned to dosing with an intraperitoneal injection of 0.9% Sodium Chloride solution at 5 ml/kg dosing volume. On the morning of the study, food was removed two or four hours prior to the study. Blood glucose concentrations were determined at T=0 min (baseline) using a Glucometer. […] Blood glucose levels were determined from tail bleeds taken between 30 to 360 minutes after dose.

In the case of “B29,B29′-suberoyl-(insulin)2 [Compound B, reference compound]”, the “glucose profile at low versus high dose in IP-ITT” value is “increasing the dosage of compounds A and B caused an increased glucose lowering potency”.

Values taken from US10017556B2, “Insulin receptor partial agonists” (MERCK SHARP & DOHME CORP., priority 2014, dated 2018).
